From patent US8653271B2 (priority 2006, dated 2014)
“And” between values parts separate entries of the source, which are not always exact repeats. Identical values can stand only once.

What was measured:
[1] = humans, systemic circulation after oral dose of NTX; cited from earlier work
[2] = system: electrically-stimulated guinea pig ileum; details: in vitro; cited from earlier work
[3] = Predicting plasma concentrations from in vitro permeation studies; details: for plasma level predicted with 5.6-fold guinea pig/human skin factor: 6-β-naltrexol equivalents; for Predicted CSS of 6-β-naltrexol: Predicted from in vitro human skin diffusion data
From the text: To predict the plasma concentration of 6-β-naltrexol after application of the gel formulation containing either the codrug or the control formulation, the following equation was used: […]
where CSS is the predicted steady state plasma concentration (ng/ml); JSS is the steady-state flux from in vitro permeation in Table 4 from previous studies; A is the area of the skin in contact with the formulation (14.5 cm^2); Cl is the total body clearance. […] Guinea pig skin is often more permeable than human skin, especially when the stratum corneum is the major rate-limiting step in the absorption process.

[4] = previous experiments; cited from earlier work
[5] = Permeation studies in guinea pigs in vivo (topical gel, plasma pharmacokinetics); design: species or system hairless guinea pigs; details: for Enhancement factor (delivery of 6-β-naltrexol in vivo): codrug gel versus 6-β-naltrexol base gel, guinea pigs; for Tlag of 6-β-naltrexol: lag time to steady-state; for Tlag of 6-β-naltrexol / AUC0-48 of 6-β-naltrexol / Cmax of 6-β-naltrexol / Tmax of 6-β-naltrexol / Observed CSS of 6-β-naltrexol: topical gel; for Tlag of 6-β-naltrexol / Cmax of 6-β-naltrexol / Tmax of 6-β-naltrexol / Observed CSS of 6-β-naltrexol: hairless guinea pigs; for AUC0-48 of 6-β-naltrexol / Cmax of 6-β-naltrexol / Tmax of 6-β-naltrexol: plasma; for AUC0-48 of 6-β-naltrexol: 14.5 cm^2, hairless guinea pigs; for Observed CSS of 6-β-naltrexol: steady-state plasma concentration, 48 h; for intact codrug in guinea pig plasma after topical application: in vivo plasma samples
Experimental: A hydroxyethyl cellulose-based gel was prepared for topical application. First, either CB-NTXOL-BUPOH or 6-β-naltrexol (˜25 mg each) was dissolved in 1 ml of PG:buffer, pH 7.4 (2:3, v/v) solution using a magnetic stirrer. Hydroxyethyl cellulose (2%, w/w) was dispersed into these mixtures, sonicated, vortexed, and allowed to form a gel at room temperature. The drug in each formulation was saturated, forming a suspension.
Male and female Hairless IAF and Hartley guinea pigs (Charles River) weighing 345-482 g were used for topical studies (n=5 to 6 per treatment group). Prior to surgery, the animals were treated with glycopyrrolate and buprenorphine (to induce analgesia), and then ketamine (100 mg/kg, i.p.) and xylazine (8 mg/kg, i.m.) were used for anesthetic purposes. Catheters were surgically implanted into the jugular vein. A “blank” baseline plasma sample was drawn from each animal immediately before drug treatment. 500 μL of the gel containing the drug was applied onto the dorsal region of the guinea pig with a syringe and subsequently spread to cover an area of 7.25 cm^2. A rubber ring fitted with a drug-impermeable backing laminate (MEDIFLEX® 1502) was used to enclose the area of gel application. ARcare® acrylic adhesive was used to ensure that the ring maintained contact with the skin. Additionally, a bio-occlusive tape was placed over the patches to further secure the formulation on the guinea pigs. Drug formulations were applied on both sides of each guinea pig to give a total application area of 14.5 cm^2. Plasma samples were obtained at predetermined time intervals, which included 48 h while the formulations were on the animal, and for another 48 h after patches and formulations were removed. Blood samples were immediately centrifuged at 10,000×g for 3 min, and the plasma was separated. Plasma samples were stored at −70° C. until analysis by liquid chromatographic mass spectrometry, LC-MS.
Topical administration data were analyzed by non-compartmental analysis to determine mean steady-state plasma concentration (CSS), lag time to steady-state (tlag), and area under the curve from 0 to 48 h, AUC0-48.

[6] = mice, versus naloxone and naltrexone; cited from earlier work
[7] = assay type: physicochemical; details: isotonic phosphate buffer pH 7.4, 32° C.
Experimental: Equal amounts of the each of the codrug were distributed into labeled test-tubes (20 nmol in each tube). Care was taken to ensure that the entire codrug was dissolved and the solution remained clear. Hydrolysis of the carbonate codrug (˜20 nmol) was conducted in isotonic phosphate buffer pH 7.4 at 32° C. in a water-bath with continuous stirring. […] Samples were collected at predetermined time intervals and stored in the freezer at −20° C. until analyzed. All experiments were conducted in triplicate. An aliquot part (250 μL) of hydrolysis solutions was mixed with 750 μL of acetonitrile, vortexed for 30s, and analyzed by HPLC for the presence of codrug and the two corresponding parent drugs, as well as for the intermediate hydrolysis product, 23. […] A Brownlee C18 reversed-phase Spheri-5 μm column (220×4.6 mm) connected to a C18 reversed-phase guard column (15×3.2 mm) was utilized and detection of solutes was carried out at 215 nm. The mobile phase consisted of a mixture of acetonitrile: 0.1% trifluoroacetic acid adjusted to pH 3.0 with triethylamine (50:50, v/v). The mobile phase flow rate was 1.5 mL/min and 100 μL of hydrolysis sample was injected onto the column.

Oc1ccc2c3c1O[C@H]1[C@H](O)CC[C@@]4(O)[C@@H](C2)N(CC2CC2)CC[C@]314 [Compound 2, 6-β-naltrexol]
half-life [1]: about 12 h
potency relative to naloxone [2]: 4.5 fold
potency relative to naltrexone [2]: 2.8 fold
plasma level predicted with 5.6-fold guinea pig/human skin factor [3]: 1.1 ng/mL
Predicted CSS of 6-β-naltrexol [3]: 0.2 ± 0.1 ng/mL
Predicted CSS of 6-β-naltrexol ([3]; listed as NTXOL): 0.2 ± 0.1 ng/mL
flux and other in vitro permeation parameters, guinea pig skin relative to human skin [4]: 5.6 fold
Enhancement factor (delivery of 6-β-naltrexol in vivo) [5]: 1
Tlag of 6-β-naltrexol [5]: 5.1 ± 0.7 h
AUC0-48 of 6-β-naltrexol [5]: 66.4 ± 7.9 ng·h/mL
Cmax of 6-β-naltrexol [5]: 1.5 ± 0.2 ng/mL
Tmax of 6-β-naltrexol [5]: 28.1 ± 1.5 h
Observed CSS of 6-β-naltrexol [5]: 1.25 ± 0.51 ng/mL and 1.2 ng/mL
Observed CSS of 6-β-naltrexol ([5]; listed as NTXOL): 1.2 ± 0.5 ng/mL
in vivo potency of an acute dose [6]: less than the other two antagonists

Cc1c(-c2cccc(Cl)c2)oc(=O)n1C(C)(C)COC(=O)Oc1ccc2c3c1OC1C(O)CCC4(O)C(C2)N(CC2CC2)CCC314 (stereo not shown) [Compound 26]
plasma level predicted with 5.6-fold guinea pig/human skin factor [3]: 3.9 ng/mL
Predicted CSS of 6-β-naltrexol ([3]; listed as CB-NTXOL-BUPOH): 0.7 ± 0.3 ng/mL
first-order rate constant k2 ([7]; generation of BUPOH via intermediate from codrug 26): 0.0139 ± 0.0006 h⁻¹
first-order rate constant k1 ([7]; hydrolysis at carbonate linker generating NTX (25) or NTXOL (26)): 0.0240 ± 0.0007 h⁻¹
Enhancement factor (delivery of 6-β-naltrexol in vivo) [5]: five-fold
intact codrug in guinea pig plasma after topical application ([5]; listed as CB-NTXOL-BUPOH): only trace amounts of intact codrug
intact codrug in guinea pig plasma after topical application ([5]; listed as codrug): Only trace amounts
Tlag of 6-β-naltrexol [5]: 5.0 ± 1.1 h
AUC0-48 of 6-β-naltrexol [5]: 282.0 ± 14.5 ng·h/mL
Cmax of 6-β-naltrexol [5]: 6.6 ± 0.4 ng/mL
Tmax of 6-β-naltrexol [5]: 10.1 ± 0.9 h
Observed CSS of 6-β-naltrexol ([5]; listed as CB-NTXOL-BUPOH): 6.4 ng/mL and 6.4 ± 0.9 ng/mL
Observed CSS of 6-β-naltrexol ([5]; listed as codrug): 6.40 ± 0.93 ng/mL
